pIC50: −log10 of the molar value.
Assays:
[1] = biological target: T1, thrombin (Homo sapiens, UniProt P00734); test: Measurement of the thrombin inhibition in buffer; assay type: biochemical; details: human thrombin 0.06 nmol/l in Tris buffer pH 7.4, 22° C., substrate Boc-Asp(OBzl)-Pro-Arg-AMC; in some cases means of individual determinations
Method: To determine the thrombin inhibition of the substances listed above, a biochemical test system is constructed in which the conversion of a thrombin substrate is used for determining the enzymatic activity of human thrombin. Here, thrombin cleaves aminomethylcoumarin, which is measured fluorescently, from the peptic substrate. The determinations are carried out in microtitre plates.
Substances to be tested are dissolved in various concentrations in dimethyl sulphoxide and incubated for 15 min with human thrombin (0.06 nmol/l dissolved in 50 mmol/l of Tris buffer [C,C,C-tris(hydroxymethyl)aminomethane], 100 mmol/l of sodium chloride, 0.1% BSA [bovine serum albumin], pH 7.4) at 22° C. The substrate (5 μmol/l Boc-Asp(OBzl)-Pro-Arg-AMC from Bachem) is then added. After 30 min of incubation, the sample is excited at a wavelength of 360 nm and the emission is measured at 460 nm. The measured emissions of the test mixtures with test substance are compared to the control mixtures without test substance (only dimethyl sulphoxide instead of test substance in dimethyl sulphoxide) and IC50 values are calculated from the concentration/activity relationships. Representative activity data from this test are given in Table 1 below (in some cases as means of individual determinations): […]

[2] = biological target: T1, thrombin; test: Thrombin-inhibitory activity in plasma samples (ecarin-activated); assay type: biochemical; details: citrate plasma, ecarin activation, fluorogenic thrombin substrate; read at about 70% of maximum signal (about 12 min); in some cases means
Method: To determine the inhibition of thrombin in plasma samples, plasma prothrombinase is activated by ecarin. Thrombin activity and/or its inhibition by potential inhibitors is/are then measured fluorescently by addition of a substrate.
The substances to be tested are dissolved in various concentrations in dimethyl sulphoxide and diluted with water. In white 96-well flat-bottomed plates, 20 μl of substance dilution are mixed with 20 μl of ecarin solution (ecarin reagent, from Sigma E-0504, final concentration 20 mU per reaction) in Ca buffer (200 mM Hepes+560 mM sodium chloride+10 mM calcium chloride+0.4% PEG) or with 20 μl of Ca buffer (as unstimulated control). Furthermore, 20 μl of fluorogenic thrombin substrate (from Bachem 1-1120, final concentration 50 μmol/l) and 20 μl of citrate plasma (from Octapharma) are added, and the mixture is homogenized well. The plate is measured in a SpectraFluorplus Reader using a 360 nm excitation filter and a 465 nm emission filter every minute over 20 minutes. […] Representative activity data from this test are given in Table 2 below (in some cases as means of individual determinations): […]

SMILES	pIC50 [1]	pIC50 [2]
COc1cc(C(=O)N2CC(C)(CC(C)O)OCC2(C)C)cn2nc(NCc3cccc(Cl)c3)nc12 (single isomer, unassigned) [Example 36, {2-[(3-Chlorobenzyl)amino]-8-methoxy[1,2,4]triazolo[1,5-a]pyridin-6-yl}[2-(2-hydroxypropyl)-2,5,5-trimethylmorpholin-4-yl]methanone]	7.27	6.49
COc1cc(C(=O)N2CC(C)(CC(C)O)OCC2(C)C)cn2nc(NCc3cccc(Cl)c3)nc12 (single isomer, unassigned) [Example 37, {2-[(3-Chlorobenzyl)amino]-8-methoxy[1,2,4]triazolo[1,5-a]pyridin-6-yl}[2-(2-hydroxypropyl)-2,5,5-trimethylmorpholin-4-yl]methanone]	7.17	6.95
COc1cc(C(=O)N2CC(C)(CC(C)O)OCC2(C)C)cn2nc(NCc3cccc(Cl)c3)nc12 (single isomer, unassigned) [Example 39, {2-[(3-Chlorobenzyl)amino]-8-methoxy[1,2,4]triazolo[1,5-a]pyridin-6-yl}[2-(2-hydroxypropyl)-2,5,5-trimethylmorpholin-4-yl]methanone]	7.52	7.47
COc1cc(C(=O)N2CC(C)OCC2C(C)(C)O)cn2nc(NCc3cccc(Cl)c3)nc12 (single isomer, unassigned) [Example 40, {2-[(3-Chlorobenzyl)amino]-8-methoxy[1,2,4]triazolo[1,5-a]pyridin-6-yl}[5-(2-hydroxypropan-2-yl)-2-methylmorpholin-4-yl]methanone]	7.51	7.12
COc1cc(C(=O)N2CC(C)(CC(C)O)OC[C@H]2C)cn2nc(NCc3cccc(Cl)c3)nc12 (single isomer, unassigned) [Example 41]	8.89	8.39
COc1cc(C(=O)N2CC(C)(C)OCC2CC(C)O)cn2nc(NCc3cccc(Cl)c3)nc12 (single isomer, unassigned) [Example 49, {2-[(3-Chlorobenzyl)amino]-8-methoxy[1,2,4]triazolo[1,5-a]pyridin-6-yl}[5-(2-hydroxypropyl)-2,2-dimethylmorpholin-4-yl]methanone]	7.72	7.62
COc1cc(C(=O)N2CC(C)(CCO)OCC2CF)cn2nc(NCc3cccc(Cl)c3)nc12 (single isomer, unassigned) [Example 53, {2-[(3-Chlorobenzyl)amino]-8-methoxy[1,2,4]triazolo[1,5-a]pyridin-6-yl}[5-(fluoromethyl)-2-(2-hydroxyethyl)-2-methylmorpholin-4-yl]methanone]	8.16	7.62
COc1cc(C(=O)N2CC(C)(CCO)OCC2CF)cn2nc(NCc3cccc(Cl)c3)nc12 (single isomer, unassigned) [Example 54, {2-[(3-Chlorobenzyl)amino]-8-methoxy[1,2,4]triazolo[1,5-a]pyridin-6-yl}[5-(fluoromethyl)-2-(2-hydroxyethyl)-2-methylmorpholin-4-yl]methanone]	7.00	6.21
COc1cc(C(=O)N2CC(C)(CCO)OCC2C(F)F)cn2nc(NCc3cccc(Cl)c3)nc12 (single isomer, unassigned) [Example 55, {[(3-Chlorobenzyl)amino]-8-methoxy[1,2,4]triazolo[1,5-a]pyridin-6-yl}[5-(difluoromethyl)-2-(2-hydroxyethyl)-2-methylmorpholin-4-yl]methanone]	8.02	7.19
COc1cc(C(=O)N2CC(C)(CC(C)O)OCC2CF)cn2nc(NCc3cccc(Cl)c3)nc12 (single isomer, unassigned) [Example 56, {[(3-Chlorobenzyl)amino]-8-methoxy[1,2,4]triazolo[1,5-a]pyridin-6-yl}[5-(fluoromethyl)-2-(2-hydroxypropyl)-2-methylmorpholin-4-yl]methanone]	8.89	8.23
CCC1C(=O)N2CCC2CN1C(=O)c1cc(OC)c2nc(NCc3cccc(Cl)c3)nn2c1 (single isomer, unassigned) [Example 59, 4-({2-[(3-Chlorobenzyl)amino]-8-methoxy[1,2,4]triazolo[1,5-a]pyridin-6-yl}carbonyl)-3-ethyl-1,4-diazabicyclo[4.2.0]octan-2-one]	8.08	7.96
COCC1C(=O)N2CCC2CN1C(=O)c1cc(OC)c2nc(NCc3cccc(Cl)c3)nn2c1 (single isomer, unassigned) [Example 60, 4-({2-[(3-Chlorobenzyl)amino]-8-methoxy[1,2,4]triazolo[1,5-a]pyridin-6-yl}carbonyl)-3-(methoxymethyl)-1,4-diazabicyclo[4.2.0]octan-2-one]	7.59	7.64
COc1cc(C(=O)N2CC3CCN3C(=O)C2C)cn2nc(NCc3cccc(Cl)c3)nc12 (single isomer, unassigned) [Example 61, 4-({2-[(3-Chlorobenzyl)amino]-8-methoxy[1,2,4]triazolo[1,5-a]pyridin-6-yl}carbonyl)-3-methyl-1,4-diazabicyclo[4.2.0]octan-2-one]	7.64	7.77
COc1cc(C(=O)N2CC3(CC3)NC(=O)C2C)cn2nc(NCc3cccc(Cl)c3)nc12 (single isomer, unassigned) [Example 62, 7-({2-[(3-Chlorobenzyl)amino]-8-methoxy[1,2,4]triazolo[1,5-a]pyridin-6-yl}carbonyl)-6-methyl-4,7-diazaspiro[2.5]octan-5-one]	7.77	7.41
CCC1C(=O)NC(C)CN1C(=O)c1cc(OC)c2nc(NCc3cccc(Cl)c3)nn2c1 (single isomer, unassigned) [Example 63, 4-({2-[(3-Chlorobenzyl)amino]-8-methoxy[1,2,4]triazolo[1,5-a]pyridin-6-yl}carbonyl)-3-ethyl-6-methylpiperazin-2-one]	8.01	7.62
COc1cc(C(=O)N2CC(C)(C)OCC2C(C)(C)O)cn2nc(NCc3cccc(Cl)c3)nc12 (single isomer, unassigned) [Example 66, {2-[(3-Chlorobenzyl)amino]-8-methoxy[1,2,4]triazolo[1,5-a]pyridin-6-yl}[5-(2-hydroxypropan-2-yl)-2,2-dimethylmorpholin-4-yl]methanone]	7.60	7.62
COc1cc(C(=O)N2CC(C)(C)OCC2C2(O)CC2)cn2nc(NCc3cccc(Cl)c3)nc12 (single isomer, unassigned) [Example 67, {2-[(3-Chlorobenzyl)amino]-8-methoxy[1,2,4]triazolo[1,5-a]pyridin-6-yl}[5-(1-hydroxycyclopropyl)-2,2-dimethylmorpholin-4-yl]methanone]	7.32	7.05
COc1cc(C(=O)N2CC(C)(C)OCC2C(C)O)cn2nc(NCc3cccc(Cl)c3)nc12 (single isomer, unassigned) [Example 68, {2-[(3-Chlorobenzyl)amino]-8-methoxy[1,2,4]triazolo[1,5-a]pyridin-6-yl}[5-(1-hydroxyethyl)-2,2-dimethylmorpholin-4-yl]methanone]	7.31	6.97
CC[C@@H]1COC(C)(CCO)CN1C(=O)c1cc(OC)c2nc(NCc3cccc(Cl)c3)nn2c1 (single isomer, unassigned) [Example 70]	8.21	7.46
COCC1COC(C)(CCO)CN1C(=O)c1cc(OC)c2nc(NCc3cccc(Cl)c3)nn2c1 (single isomer, unassigned) [Example 72, {2-[(3-Chlorobenzyl)amino]-8-methoxy[1,2,4]triazolo[1,5-a]pyridin-6-yl}[2-(2-hydroxyethyl)-5-(methoxymethyl)-2-methylmorpholin-4-yl]methanone]	7.89	7.47
[2H]C([2H])(C)O[C@@H]1CC(CO)N(C(=O)c2cc(OC)c3nc(NCc4cccc(Cl)c4)nn3c2)C1 (single isomer, unassigned) [Example 74]	7.72	7.72
COc1cc(C(=O)N2C[C@H](OCC(F)F)CC2CO)cn2nc(NCc3cccc(Cl)c3)nc12 (single isomer, unassigned) [Example 75]	7.64	7.13
COc1cc(C(=O)N2CC3CCN3C(=O)C2C)cn2nc(NC(CF)c3cccc(Cl)c3)nc12 (single isomer, unassigned) [Example 77, 4-[(2-{[1-(3-Chlorophenyl)-2-fluoroethyl]amino}-8-methoxy[1,2,4]triazolo[1,5-a]pyridin-6-yl)carbonyl]-3-methyl-1,4-diazabicyclo[4.2.0]octan-2-one]	8.19	8.23

Reference: patent US20160108039A1, “TRIAZOLOPYRIDINES AS THROMBIN INHIBITORS FOR THE TREATMENT OF THROMBOEMBOLIC DISEASES” (BAYER PHARMA AKTIENGESELLSCHAFT, priority 2013, published 2016)
